In patent US6673807B1, “Immunosuppressive imidazole derivatives and their combination preparations with tacrolimus or cyclosporins” (Fujisawa Pharmaceutical Co., Ltd., priority 1998, dated 2004):

What was measured:
[1] = tested on: production of nitric oxide in RAW264.7 cells; assay: Assay for inhibitory activity on the production of nitric oxide (Griess, LPS + INFγ activated cells); assay type: cell-based, murine; conditions: Mus musculus; test compound 10^-5 M; RAW264.7 cells activated with LPS 1 μg/ml and INFγ 3 u/ml for 18-24 hours
Procedure: Test: Assay for Inhibitory Activity on the Production of Nitric Oxide
The murine macrophage cell line RAW264.7 (American Type Culture Collection, No. TIB71) was used in this study. RAW264.7 cells were grown on F75 plastic culture flasks at 37° C., 5% in Dulbecco's modified Eagle's medium (DMEM) supplemented with L-glutamine, penicillin, streptomycin and 10% heat-inactivated fetal bovine serum. They were removed from culture flasks by rubber cell scraper and were centrifuged and resuspended in DMEM without phenol red. They were plated in 96-well microtiter plates (10^5 cells per well) and allowed to adhere over 2 hours. The test samples were added and the cells were preincubated for 1 hour. Thereafter the cells were activated with both of lipopolysaccharide (LPS) (1 μg/ml) and interferon γ (INFγ) (3 u/ml) for 18-24 hours. An equal volume of Griess reagent (1% sulfanilamide/0.1% N-naphthylethylenediamine dihydrochloride/2.5% H3PO4) was added and the cells were incubated at room temperature for 10 minutes. The absorbance was read at 570 nm using microplate reader and NO2 was measured using NaNO2 as a standard.

rat cardiac allograft = assay: Rat cardiac allograft survival (Lewis donor to ACI recipient, heterotopic intra-abdominal cardiac transplantation); assay type: in vivo; conditions: for MST (Median Survival Time): daily gastric intubation for 14 days
Procedure: Protective effect of the compound (f) or (g) combined with FK506 on rat cardiac allograft:
(§1) Experiments were performed on male Lewis and ACI rats weighing 175-200 g. Rats were anesthetized with sodium pentobarbital (50 mg/kg, i.p), and performed allogeneic (Lewis donor to ACI recipient) heterotopic intra-abdominal cardiac transplantation. Experimental groups were divided into single-drug group and combined-drug groups. Single-drug dose of FK506 was 0.32 mg/kg. Combined-dose groups were FK506(0.32 mg/kg)+the compound (f) (3.2 mg/kg), FK506(0.32 mg/kg)+the compound (f) (10 mg/kg), and FK506(0.32 mg/kg)+the compound (g) (10 mg/kg). The grafted hearts were monitored by daily palpation and complete rejection was defined as the cessation of palpable contractile activity. Drugs were suspended in a solution of 0.5% methylcellulose, and administered by daily gastric intubation in a volume of 5 ml/kg of body weight for 14 days. The blood samples were collected on 5 days after transplantation for analysis of nitrite/nitrate (NOx). The concentration of NOx in rat plasma was measured by using a spectrophotometric assay based upon the Griess reaction.

NOx in rat plasma = assay: Concentration of nitrite/nitrate (NOx) in rat plasma after cardiac transplantation (Griess reaction); assay type: in vivo
Procedure: as §1

SMILES	inhibition at 10 µM [1] [%]	other results
CCOc1ccc(-c2c(Cc3ccccc3)nc([C@H](Cc3ccccn3)NC(=O)c3cc4ccccc4[nH]3)n2C)cc1 [(a)]	100	
Cn1c(-c2ccc([N+](=O)[O-])cc2)cnc1[C@H](Cc1ccccn1)NC(=O)c1cc2cc(Cl)ccc2[nH]1 [(b)]	100	
Cn1c(-c2ccc([N+](=O)[O-])cc2)cnc1[C@H](CC(=O)Nc1ccccn1)NC(=O)c1cc2ccccc2[nH]1 [(c)]	100	
COc1ccc(NC(=O)C[C@H](NC(=O)c2cc3ccccc3[nH]2)c2ncc(-c3ccc([N+](=O)[O-])cc3)n2C)cc1 [(d)]	100	
Cn1c(-c2ccc([N+](=O)[O-])cc2)cnc1[C@H](CC(=O)Nc1ccc2c(c1)OCO2)NC(=O)c1cc2ccccc2[nH]1 [(e)]	100	
Cn1c(-c2ccc(N3CCOCC3)cc2)cnc1[C@H](Cc1ccccn1)NC(=O)c1cc2cc(Cl)ccc2o1 [(g)]	100	MST (Median Survival Time) (rat cardiac allograft; Table 2, compound (g) 10 mg/kg + FK506 0.32 mg/kg): >30 days; graft survival (rat cardiac allograft; combination with FK506, rat cardiac allograft): dramatically prolonged; elevated NOx production during cardiac allograft rejection (NOx in rat plasma; rat cardiac allograft, in a dose-dependent manner): inhibited
C=CC[C@@H]1/C=C(\C)C[C@H](C)C[C@H](OC)[C@H]2O[C@@](O)(C(=O)C(=O)N3CCCC[C@H]3C(=O)O[C@H](/C(C)=C/[C@@H]3CC[C@@H](O)[C@H](OC)C3)[C@H](C)[C@@H](O)CC1=O)[C@H](C)C[C@@H]2OC [FK506, 17-allyl-1,14-dihydroxy-12-[2-(4-hydroxy-3-methoxycyclohexyl)-1-methylvinyl]-23,25-dimethoxy-13,19,21,27-tetramethyl-11,28-dioxa-4-azatricyclo[22.3.1.0^4,9]octacos-18-ene-2,3,10,16-tetraone, reference compound]		MST (Median Survival Time) (rat cardiac allograft; Table 1, FK506 0.32 mg/kg alone): 8.5 days; MST (Median Survival Time) (rat cardiac allograft; Table 2, FK506 0.32 mg/kg alone): 10 days; NOx (NOx in rat plasma; Table 1, FK506 0.32 mg/kg alone, rat plasma, 5 days after transplantation): >40 µM
